Measurements as given in ChEMBL document CHEMBL1201862, “PubChem BioAssay data set” (2004).
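Where inhibition never reached the appropriate level, the endpoint shown equals the highest concentration tested. Otherwise, values were interpolated linearly from a five-concentration, 48-hour dose response in 96-well plates. GI50: concentration for 50% inhibition of growth.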 Calls of active or inactive are those of the source. No stated cut-off is given here; in the data, active = GI50 up to about 1.1 µM and inactive = higher.

What was measured:
Assay in all cases: DTP human tumour cell line panel, 48 h
786-0 = system: 786-0
A498 = system: A498
A549 = system: A549
ACHN = system: ACHN
CAKI-1 = system: CAKI-1
CCRF-CEM = system: CCRF-CEM
COLO 205 = system: COLO 205
DLD-1 = system: DLD-1
DMS-114 = system: DMS-114
DMS-273 = system: DMS-273
EKVX = system: EKVX
HCC 2998 = system: HCC 2998
HCT-116 = system: HCT-116
HCT-15 = system: HCT-15
HL-60 = system: HL-60
HOP-18 = system: HOP-18
HOP-62 = system: HOP-62
IGROV-1 = system: IGROV-1
K562 = system: K562
KM-20L2 = system: KM-20L2
KM12 = system: KM12
LXFL 529 = system: LXFL 529
M14 = system: M14
MOLT-4 = system: MOLT-4
Malme-3M = system: Malme-3M
NCI-H226 = system: NCI-H226
NCI-H460 = system: NCI-H460
NCI-H522 = system: NCI-H522
OVCAR-3 = system: OVCAR-3
OVCAR-4 = system: OVCAR-4
OVCAR-8 = system: OVCAR-8
RPMI-8226 = system: RPMI-8226
RXF 393 = system: RXF 393
RXF 631 = system: RXF 631
SF-268 = system: SF-268
SF-539 = system: SF-539
SK-MEL-28 = system: SK-MEL-28
SK-MEL-2 = system: SK-MEL-2
SK-MEL-5 = system: SK-MEL-5
SK-OV-3 = system: SK-OV-3
SN12C = system: SN12C
SNB-19 = system: SNB-19
SNB-75 = system: SNB-75
SNB-78 = system: SNB-78
SR = system: SR
SW-620 = system: SW-620
TK-10 = system: TK-10
U-251 = system: U-251
UACC-257 = system: UACC-257
UACC-62 = system: UACC-62
UO-31 = system: UO-31
HOP-92 = system: HOP-92
HT-29 = system: HT-29
LOX IMVI = system: LOX IMVI
M19-MEL = system: M19-MEL
NCI-H23 = system: NCI-H23
OVCAR-5 = system: OVCAR-5
SF-295 = system: SF-295
XF498 = system: XF498

## Cc1ccc(Nc2ccc(Nc3ccc(C)cc3S(=O)(=O)O)c3c2C(=O)c2ccccc2C3=O)c(S(=O)(=O)O)c1
786-0
  GI50: > 100 µM (inactive)
A498
  GI50: > 100 µM (inactive)
A549
  GI50: > 100 µM (inactive)
ACHN
  GI50: > 100 µM (inactive)
CAKI-1
  GI50: > 100 µM (inactive)
CCRF-CEM
  GI50: > 100 µM (inactive)
COLO 205
  GI50: > 100 µM (inactive)
DLD-1
  GI50: > 100 µM (inactive)
DMS-114
  GI50: > 100 µM (inactive)
DMS-273
  GI50: > 100 µM (inactive)
EKVX
  GI50: > 100 µM (inactive)
HCC 2998
  GI50: > 100 µM (inactive)
HCT-116
  GI50: > 100 µM (inactive)
HCT-15
  GI50: > 100 µM
HL-60
  GI50: > 100 µM (inactive)
HOP-18
  GI50: > 100 µM (inactive)
HOP-62
  GI50: > 100 µM (inactive)
IGROV-1
  GI50: > 100 µM (inactive)
K562
  GI50: > 100 µM (inactive)
KM-20L2
  GI50: > 100 µM (inactive)
KM12
  GI50: > 100 µM (inactive)
LXFL 529
  GI50: > 100 µM (inactive)
M14
  GI50: > 100 µM (inactive)
MOLT-4
  GI50: > 100 µM (inactive)
Malme-3M
  GI50: > 100 µM (inactive)
NCI-H226
  GI50: > 100 µM (inactive)
NCI-H460
  GI50: > 100 µM (inactive)
NCI-H522
  GI50: > 100 µM (inactive)
OVCAR-3
  GI50: > 100 µM (inactive)
OVCAR-4
  GI50: > 100 µM (inactive)
OVCAR-8
  GI50: > 100 µM (inactive)
RPMI-8226
  GI50: > 100 µM (inactive)
RXF 393
  GI50: > 100 µM (inactive)
RXF 631
  GI50: > 100 µM (inactive)
SF-268
  GI50: > 100 µM (inactive)
SF-539
  GI50: > 100 µM (inactive)
SK-MEL-28
  GI50: > 100 µM (inactive)
SK-MEL-2
  GI50: > 100 µM (inactive)
SK-MEL-5
  GI50: > 100 µM (inactive)
SK-OV-3
  GI50: > 100 µM (inactive)
SN12C
  GI50: > 100 µM (inactive)
SNB-19
  GI50: > 100 µM (inactive)
SNB-75
  GI50: 94.6 µM (inactive)
SNB-78
  GI50: > 100 µM (inactive)
SR
  GI50: > 100 µM (inactive)
SW-620
  GI50: > 100 µM (inactive)
TK-10
  GI50: > 100 µM (inactive)
U-251
  GI50: > 100 µM (inactive)
UACC-257
  GI50: > 100 µM (inactive)
UACC-62
  GI50: > 100 µM (inactive)
UO-31
  GI50: > 100 µM (inactive)

## C=CCOC(=O)C1CCC(=O)N1C(=O)C(Cl)Cl (stereo unspecified)
786-0
  GI50: > 100 µM (inactive)
A498
  GI50: > 100 µM (inactive)
A549
  GI50: > 100 µM (inactive)
ACHN
  GI50: > 100 µM (inactive)
CAKI-1
  GI50: > 100 µM (inactive)
CCRF-CEM
  GI50: > 100 µM (inactive)
COLO 205
  GI50: > 100 µM (inactive)
DLD-1
  GI50: > 100 µM (inactive)
DMS-114
  GI50: > 100 µM (inactive)
DMS-273
  GI50: > 100 µM (inactive)
EKVX
  GI50: > 100 µM (inactive)
HCC 2998
  GI50: > 100 µM (inactive)
HCT-116
  GI50: > 100 µM (inactive)
HCT-15
  GI50: > 100 µM
HL-60
  GI50: > 100 µM (inactive)
HOP-18
  GI50: > 100 µM (inactive)
HOP-62
  GI50: > 100 µM (inactive)
HOP-92
  GI50: > 100 µM (inactive)
HT-29
  GI50: > 100 µM (inactive)
IGROV-1
  GI50: > 100 µM (inactive)
K562
  GI50: > 100 µM (inactive)
KM-20L2
  GI50: > 100 µM (inactive)
KM12
  GI50: > 100 µM (inactive)
LOX IMVI
  GI50: > 100 µM (inactive)
LXFL 529
  GI50: > 100 µM (inactive)
M14
  GI50: > 100 µM (inactive)
M19-MEL
  GI50: > 100 µM (inactive)
MOLT-4
  GI50: > 100 µM (inactive)
Malme-3M
  GI50: > 100 µM (inactive)
NCI-H226
  GI50: > 100 µM (inactive)
NCI-H23
  GI50: > 100 µM (inactive)
NCI-H460
  GI50: > 100 µM (inactive)
NCI-H522
  GI50: > 100 µM (inactive)
OVCAR-3
  GI50: > 100 µM (inactive)
OVCAR-4
  GI50: > 100 µM (inactive)
OVCAR-5
  GI50: > 100 µM (inactive)
OVCAR-8
  GI50: > 100 µM (inactive)
RPMI-8226
  GI50: > 100 µM (inactive)
SF-268
  GI50: > 100 µM (inactive)
SF-295
  GI50: > 100 µM (inactive)
SK-MEL-28
  GI50: > 100 µM (inactive)
SK-MEL-2
  GI50: > 100 µM (inactive)
SK-MEL-5
  GI50: > 100 µM (inactive)
SK-OV-3
  GI50: > 100 µM (inactive)
SN12C
  GI50: > 100 µM (inactive)
SNB-19
  GI50: > 100 µM (inactive)
SNB-75
  GI50: 61.8 µM (inactive)
SNB-78
  GI50: > 100 µM (inactive)
SW-620
  GI50: > 100 µM (inactive)
TK-10
  GI50: > 100 µM (inactive)
U-251
  GI50: > 100 µM (inactive)
UACC-257
  GI50: > 100 µM (inactive)
UACC-62
  GI50: > 100 µM (inactive)
UO-31
  GI50: > 100 µM (inactive)
XF498
  GI50: 17.7 µM (inactive)
